Test results as given in PubChem BioAssay (NCI).
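Results reflect a 48-hour exposure of cells in 96-well plates to compound at five concentrations. Here, GI50 denotes the concentration required for 50% inhibition of growth. TGI: total growth inhibition.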

Legend:
Assay in all cases: NCI tumour cell line growth inhibition, 48 h; in the data active = GI50 below about 0.43 µM; inactive = the rest
SF-295 CNS = system: SF-295 CNS
NCI-H460 lung = system: NCI-H460 lung
A549 NSCLC = system: A549 NSCLC
MALME-3M melanoma = system: MALME-3M melanoma
SN12C renal = system: SN12C renal
SK-MEL-5 melanoma = system: SK-MEL-5 melanoma
786-0 renal = system: 786-0 renal
T-47D breast = system: T-47D breast
OVCAR-5 ovarian = system: OVCAR-5 ovarian
SNB-19 CNS = system: SNB-19 CNS
HCT-116 colon = system: HCT-116 colon
UACC-62 melanoma = system: UACC-62 melanoma
EKVX NSCLC = system: EKVX NSCLC
HS 578T breast = system: HS 578T breast
CCRF-CEM leukemia = system: CCRF-CEM leukemia
NCI-H522 lung = system: NCI-H522 lung
PC-3 prostate = system: PC-3 prostate
MCF7 breast = system: MCF7 breast
NCI/ADR-RES ovarian = system: NCI/ADR-RES ovarian
TK-10 renal = system: TK-10 renal
CAKI-1 renal = system: CAKI-1 renal
HOP-62 NSCLC = system: HOP-62 NSCLC
SW-620 colon = system: SW-620 colon
SNB-75 CNS = system: SNB-75 CNS
OVCAR-8 ovarian = system: OVCAR-8 ovarian
K-562 leukemia = system: K-562 leukemia
OVCAR-3 ovarian = system: OVCAR-3 ovarian
A498 renal = system: A498 renal
LOX IMVI melanoma = system: LOX IMVI melanoma
SK-OV-3 ovarian = system: SK-OV-3 ovarian
MOLT-4 leukemia = system: MOLT-4 leukemia
UACC-257 melanoma = system: UACC-257 melanoma
NCI-H226 lung = system: NCI-H226 lung
BT-549 breast = system: BT-549 breast
SR leukemia = system: SR leukemia
RPMI-8226 leukemia = system: RPMI-8226 leukemia
M14 melanoma = system: M14 melanoma
MDA-MB-231 breast = system: MDA-MB-231 breast
SK-MEL-2 melanoma = system: SK-MEL-2 melanoma
COLO 205 colon = system: COLO 205 colon
UO-31 renal = system: UO-31 renal
KM12 colon = system: KM12 colon
U251 CNS = system: U251 CNS
DU-145 prostate = system: DU-145 prostate
HT29 colon = system: HT29 colon
HOP-92 NSCLC = system: HOP-92 NSCLC
SF-268 CNS = system: SF-268 CNS
SF-539 CNS = system: SF-539 CNS
HCT-15 colon = system: HCT-15 colon
HCC-2998 colon = system: HCC-2998 colon
RXF 393 renal = system: RXF 393 renal
HL-60(TB) leukemia = system: HL-60(TB) leukemia
MDA-MB-435 = system: MDA-MB-435
ACHN renal = system: ACHN renal
IGROV1 ovarian = system: IGROV1 ovarian
OVCAR-4 ovarian = system: OVCAR-4 ovarian
SK-MEL-28 melanoma = system: SK-MEL-28 melanoma
NCI-H23 lung = system: NCI-H23 lung

COc1ccc2c(c1OC)-c1c(c3ccc([N+](=O)[O-])cc3c(=O)n1CCCBr)C2=O
58.5 µM: TGI (HOP-62 NSCLC)
60.6 µM: TGI (SNB-75 CNS)
80.9 µM: TGI (CCRF-CEM leukemia)
45.5 µM: TGI (LOX IMVI melanoma)
inactive: GI50 (SF-295 CNS) 28.6 µM | GI50 (NCI-H460 lung) 6.64 µM | GI50 (A549 NSCLC) 42.4 µM | GI50 (MALME-3M melanoma) 79.9 µM | GI50 (SN12C renal) 36.2 µM | GI50 (SK-MEL-5 melanoma) 18.1 µM | GI50 (786-0 renal) 21.6 µM | GI50 (T-47D breast) 97.3 µM | GI50 (OVCAR-5 ovarian) > 100 µM | GI50 (SNB-19 CNS) 69.9 µM | GI50 (HCT-116 colon) 19 µM | GI50 (UACC-62 melanoma) 18.1 µM | GI50 (EKVX NSCLC) > 100 µM | GI50 (HS 578T breast) 70.6 µM | GI50 (CCRF-CEM leukemia) 16.9 µM | GI50 (NCI-H522 lung) 27.6 µM | GI50 (PC-3 prostate) 18.1 µM | GI50 (MCF7 breast) 3.66 µM | GI50 (NCI/ADR-RES ovarian) 26 µM | GI50 (TK-10 renal) > 100 µM | GI50 (CAKI-1 renal) 7.31 µM | GI50 (HOP-62 NSCLC) 21.8 µM | GI50 (SW-620 colon) 5.59 µM | GI50 (SNB-75 CNS) 26.8 µM | GI50 (OVCAR-8 ovarian) > 100 µM | GI50 (K-562 leukemia) 99.7 µM | GI50 (OVCAR-3 ovarian) > 100 µM | GI50 (A498 renal) > 100 µM | GI50 (LOX IMVI melanoma) 12.7 µM | GI50 (SK-OV-3 ovarian) > 100 µM | GI50 (MOLT-4 leukemia) 18.9 µM | GI50 (UACC-257 melanoma) > 100 µM | GI50 (NCI-H226 lung) 26.8 µM | GI50 (BT-549 breast) 50.8 µM | GI50 (SR leukemia) 4.67 µM | GI50 (RPMI-8226 leukemia) 25 µM | GI50 (M14 melanoma) 27.2 µM | GI50 (MDA-MB-231 breast) 55 µM | GI50 (SK-MEL-2 melanoma) > 100 µM | GI50 (COLO 205 colon) > 100 µM | GI50 (UO-31 renal) 35.3 µM | GI50 (KM12 colon) > 100 µM
98.9 µM: TGI (NCI/ADR-RES ovarian)
76.1 µM: TGI (UACC-62 melanoma)
20.6 µM: TGI (MCF7 breast)
68.8 µM: TGI (NCI-H460 lung)
> 100 µM: TGI (SF-295 CNS) | TGI (A549 NSCLC) | TGI (MALME-3M melanoma) | TGI (SN12C renal) | TGI (SK-MEL-5 melanoma) | TGI (T-47D breast) | TGI (OVCAR-5 ovarian) | TGI (SNB-19 CNS) | TGI (HCT-116 colon) | TGI (EKVX NSCLC) | TGI (HS 578T breast) | TGI (NCI-H522 lung) | TGI (PC-3 prostate) | TGI (TK-10 renal) | TGI (CAKI-1 renal) | TGI (SW-620 colon) | TGI (OVCAR-8 ovarian) | TGI (K-562 leukemia) | TGI (OVCAR-3 ovarian) | TGI (A498 renal) | TGI (SK-OV-3 ovarian) | TGI (UACC-257 melanoma) | TGI (BT-549 breast) | TGI (SR leukemia) | TGI (RPMI-8226 leukemia) | TGI (M14 melanoma) | TGI (MDA-MB-231 breast) | TGI (SK-MEL-2 melanoma) | TGI (COLO 205 colon) | TGI (UO-31 renal) | TGI (KM12 colon)
52.1 µM: TGI (786-0 renal)
84.3 µM: TGI (NCI-H226 lung)
52.7 µM: TGI (MOLT-4 leukemia)

NC(=O)[C@@H](CC1CC1)[C@@H](CCC(F)(F)F)C(=O)N[C@H]1N=C(c2ccccc2)c2cccc(F)c2NC1=O
53.9 µM: TGI (786-0 renal)
32.5 µM: TGI (MALME-3M melanoma)
39.1 µM: TGI (HL-60(TB) leukemia)
52.4 µM: TGI (SK-MEL-28 melanoma)
35.1 µM: TGI (SK-MEL-5 melanoma)
inactive: GI50 (U251 CNS) > 100 µM | GI50 (DU-145 prostate) > 100 µM | GI50 (SF-295 CNS) > 100 µM | GI50 (NCI-H460 lung) > 100 µM | GI50 (A549 NSCLC) > 100 µM | GI50 (HT29 colon) > 100 µM | GI50 (MALME-3M melanoma) 15.4 µM | GI50 (SN12C renal) > 100 µM | GI50 (SK-MEL-5 melanoma) 17.7 µM | GI50 (786-0 renal) 17.8 µM | GI50 (T-47D breast) 15.3 µM | GI50 (HOP-92 NSCLC) 19.3 µM | GI50 (OVCAR-5 ovarian) > 100 µM | GI50 (SNB-19 CNS) > 100 µM | GI50 (HCT-116 colon) > 100 µM | GI50 (SF-268 CNS) > 100 µM | GI50 (SF-539 CNS) 17.4 µM | GI50 (HCT-15 colon) > 100 µM | GI50 (UACC-62 melanoma) > 100 µM | GI50 (HCC-2998 colon) > 100 µM | GI50 (EKVX NSCLC) > 100 µM | GI50 (HS 578T breast) > 100 µM | GI50 (RXF 393 renal) 68 µM | GI50 (NCI-H522 lung) > 100 µM | GI50 (PC-3 prostate) 69 µM | GI50 (MCF7 breast) 28.3 µM | GI50 (NCI/ADR-RES ovarian) > 100 µM | GI50 (TK-10 renal) > 100 µM | GI50 (CAKI-1 renal) > 100 µM | GI50 (HOP-62 NSCLC) > 100 µM | GI50 (SW-620 colon) > 100 µM | GI50 (SNB-75 CNS) 16.3 µM | GI50 (OVCAR-8 ovarian) > 100 µM | GI50 (K-562 leukemia) 46.9 µM | GI50 (HL-60(TB) leukemia) 11.5 µM | GI50 (OVCAR-3 ovarian) > 100 µM | GI50 (LOX IMVI melanoma) 48 µM | GI50 (SK-OV-3 ovarian) > 100 µM | GI50 (MDA-MB-435) 66.7 µM | GI50 (MOLT-4 leukemia) 18.5 µM | GI50 (UACC-257 melanoma) > 100 µM | GI50 (NCI-H226 lung) > 100 µM | GI50 (BT-549 breast) > 100 µM | GI50 (SR leukemia) 12 µM | GI50 (ACHN renal) 66 µM | GI50 (IGROV1 ovarian) 31.7 µM | GI50 (RPMI-8226 leukemia) 27.8 µM | GI50 (M14 melanoma) > 100 µM | GI50 (OVCAR-4 ovarian) 54.9 µM | GI50 (SK-MEL-28 melanoma) 19.7 µM | GI50 (MDA-MB-231 breast) 18.8 µM | GI50 (SK-MEL-2 melanoma) > 100 µM | GI50 (COLO 205 colon) > 100 µM | GI50 (NCI-H23 lung) > 100 µM | GI50 (UO-31 renal) 75.3 µM | GI50 (KM12 colon) > 100 µM
38.9 µM: TGI (SF-539 CNS)
56.8 µM: TGI (T-47D breast)
> 100 µM: TGI (U251 CNS) | TGI (DU-145 prostate) | TGI (SF-295 CNS) | TGI (NCI-H460 lung) | TGI (A549 NSCLC) | TGI (HT29 colon) | TGI (SN12C renal) | TGI (HOP-92 NSCLC) | TGI (OVCAR-5 ovarian) | TGI (SNB-19 CNS) | TGI (HCT-116 colon) | TGI (SF-268 CNS) | TGI (HCT-15 colon) | TGI (UACC-62 melanoma) | TGI (HCC-2998 colon) | TGI (EKVX NSCLC) | TGI (HS 578T breast) | TGI (RXF 393 renal) | TGI (NCI-H522 lung) | TGI (PC-3 prostate) | TGI (MCF7 breast) | TGI (NCI/ADR-RES ovarian) | TGI (TK-10 renal) | TGI (CAKI-1 renal) | TGI (HOP-62 NSCLC) | TGI (SW-620 colon) | TGI (SNB-75 CNS) | TGI (OVCAR-8 ovarian) | TGI (K-562 leukemia) | TGI (OVCAR-3 ovarian) | TGI (LOX IMVI melanoma) | TGI (SK-OV-3 ovarian) | TGI (MDA-MB-435) | TGI (MOLT-4 leukemia) | TGI (UACC-257 melanoma) | TGI (NCI-H226 lung) | TGI (BT-549 breast) | TGI (SR leukemia) | TGI (ACHN renal) | TGI (IGROV1 ovarian) | TGI (RPMI-8226 leukemia) | TGI (M14 melanoma) | TGI (OVCAR-4 ovarian) | TGI (SK-MEL-2 melanoma) | TGI (COLO 205 colon) | TGI (NCI-H23 lung) | TGI (UO-31 renal) | TGI (KM12 colon)
42.7 µM: TGI (MDA-MB-231 breast)
